Assays:
[1] = molecular target: memapsin 2 (Homo sapiens, UniProt P56817); experiment: Inhibition of memapsin 2 beta-secretase activity toward fluorogenic substrate FS-2; type: biochemical; details: memapsin 2, pH 4, 37° C., 20 minutes pre-incubation, substrate FS-2; read-out: M2Ki
Procedure, shortened: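 Memapsin 2 was preincubated with compound 20 min at pH 4, 37 °C, then reacted with fluorogenic substrate FS-2 (MCA-SEVNLDAEFK-DNP), an APP-derived Swedish-variant peptide. Inhibition was followed kinetically by fluorescence.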

[2] = test system: Aβ production in Chinese hamster ovary cells that over-express human APP695 with the London and Swedish mutations; experiment: Cellular Aβ IC50 determination (Aβ40 sandwich ELISA); type: cell-based; details: Cricetulus griseus; Aβ40 in CHO cells over-expressing human APP695, 24 h incubation
Procedure: The potency of compounds against memapsin 2 activity was determined in a cellular assay of Aβ production. […] Chinese hamster ovary cells that over-express human APP695 with the London and Swedish mutations were seeded in multi-well plates at 10% confluency. Compounds are dissolved in DMSO to concentrations near 1 mM, and diluted into culture media to a final concentration near 4 μM (final 0.4% DMSO). Compounds were diluted serially and applied to cells in multi-well plates 48 h after seeding. Incubation was continued in 5% CO2 at 37° C. for 24 h. Aliquots were removed and assayed for Aβ40 content using a sandwich ELISA (BioSource International). Amount of Aβ40 over the range of concentration of compounds, relative to control incubations, were fit to a 4-parameter IC50 model.

memapsin 2, sequence (P56817 46-501): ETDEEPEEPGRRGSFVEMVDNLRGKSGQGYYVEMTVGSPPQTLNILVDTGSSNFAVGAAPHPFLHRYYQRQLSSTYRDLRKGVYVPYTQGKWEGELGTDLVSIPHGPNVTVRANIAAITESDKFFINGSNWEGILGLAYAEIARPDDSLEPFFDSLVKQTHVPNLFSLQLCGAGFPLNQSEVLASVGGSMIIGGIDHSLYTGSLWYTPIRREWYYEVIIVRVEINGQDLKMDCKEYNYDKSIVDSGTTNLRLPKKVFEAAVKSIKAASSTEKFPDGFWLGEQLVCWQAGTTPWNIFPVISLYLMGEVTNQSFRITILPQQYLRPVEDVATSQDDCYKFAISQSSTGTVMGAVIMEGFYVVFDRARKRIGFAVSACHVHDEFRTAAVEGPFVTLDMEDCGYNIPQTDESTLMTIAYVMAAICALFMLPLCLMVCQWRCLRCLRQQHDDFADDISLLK

Compound | Ki [1] [nM] | IC50 [2] [nM]
Cc1csc([C@H]2CCCN2C(=O)c2cc(C(=O)N[C@@H](Cc3ccccc3)[C@H](O)CNCc3cncc(C(C)C)c3)cc(-c3cnccn3)c2)n1 [Compound 43, N-((2S,3R)-3-hydroxy-4-((5-isopropylpyridin-3-yl)methylamino)-1-phenylbutan-2-yl)-3-((R)-2-(4-methylthiazol-2-yl)pyrrolidine-1-carbonyl)-5-(pyrazin-2-yl)benzamide] | < 100 | < 300
COc1cccc(CNC[C@@H](O)[C@H](Cc2ccccc2)NC(=O)c2cccc(C(=O)N3CCCC[C@@H]3c3nc(C)cs3)c2)c1 [Compound 5, N-((2S,3R)-3-hydroxy-4-(3-methoxybenzylamino)-1-phenylbutan-2-yl)-3-((R)-2-(4-methylthiazol-2-yl)piperidine-1-carbonyl)benzamide] | < 100 | > 501
Cc1csc([C@H]2CCCN2C(=O)c2cc(C(=O)N[C@@H](Cc3ccccc3)[C@H](O)CNCc3cncc(C(C)(C)F)c3)cc(-c3ncco3)c2)n1 [Compound 38, N-((2S,3R)-4-((5-(2-fluoropropan-2-yl)pyridin-3-yl)methylamino)-3-hydroxy-1-phenylbutan-2-yl)-3-((R)-2-(4-methylthiazol-2-yl)pyrrolidine-1-carbonyl)-5-(oxazol-2-yl)benzamide] | < 100 | < 300
Cc1csc([C@H]2COCN2C(=O)c2cccc(C(=O)N[C@@H](Cc3ccccc3)[C@H](O)CNCc3cccc(C(F)(F)F)c3)c2)n1 [Compound 26, N-((2S,3R)-3-hydroxy-1-phenyl-4-(3-(trifluoromethyl)benzylamino)butan-2-yl)-3-((R)-4-(4-methylthiazol-2-yl)oxazolidine-3-carbonyl)benzamide] | < 100 | < 300
Cc1coc([C@H]2CCCN2C(=O)c2cccc(C(=O)N[C@@H](Cc3ccccc3)[C@H](O)CNCc3cccc(C(C)(C)C)c3)c2)n1 [Compound 70, N-((2S,3R)-4-(3-tert-butylbenzylamino)-3-hydroxy-1-phenylbutan-2-yl)-3-((R)-2-(4-methyloxazol-2-yl)pyrrolidine-1-carbonyl)benzamide] | < 100 | < 300
Cc1csc([C@H]2CCCN2C(=O)c2cc(C(=O)N[C@@H](Cc3ccccc3)[C@H](O)CNCc3cccc(C(F)(F)F)c3)cc(N(C)C)c2)n1 [Compound 30, 3-(dimethylamino)-N-((2S,3R)-3-hydroxy-1-phenyl-4-(3-(trifluoromethyl)benzylamino)butan-2-yl)-5-((R)-2-(4-methylthiazol-2-yl)pyrrolidine-1-carbonyl)benzamide] | < 100 | < 300
COc1cc(C(=O)N[C@@H](Cc2ccccc2)[C@H](O)CNCc2cccc(C(C)(C)C)c2)cc(C(=O)N2CCC[C@@H]2c2nc(C)cs2)c1 [Compound 16, N-((2S,3R)-4-(3-tert-butylbenzylamino)-3-hydroxy-1-phenylbutan-2-yl)-3-methoxy-5-((R)-2-(4-methylthiazol-2-yl)pyrrolidine-1-carbonyl)benzamide] | < 100 | < 300
Cc1coc([C@H]2CCCN2C(=O)c2cc(CF)cc(C(=O)N[C@@H](Cc3ccccc3)[C@H](O)CNCc3cncc(C(C)(C)F)c3)c2)n1 [Compound 78, 3-(fluoromethyl)-N-((2S,3R)-4-((5-(2-fluoropropan-2-yl)pyridin-3-yl)methylamino)-3-hydroxy-1-phenylbutan-2-yl)-5-((R)-2-(4-methyloxazol-2-yl)pyrrolidine-1-carbonyl)benzamide] | < 100 | < 300
Cc1csc([C@H]2CCCN2C(=O)c2cc(C(=O)N[C@@H](Cc3ccccc3)[C@H](O)CNCc3cccc(C(F)(F)F)c3)cc(-n3cccc3)c2)n1 [Compound 80, N-((2S,3R)-3-hydroxy-1-phenyl-4-(3-(trifluoromethyl)benzylamino)butan-2-yl)-3-((R)-2-(4-methylthiazol-2-yl)pyrrolidine-1-carbonyl)-5-(1H-pyrrol-1-yl)benzamide] | < 100 | < 300
Cc1csc([C@H]2CCCN2C(=O)c2cc(C(=O)N[C@@H](Cc3ccccc3)[C@H](O)CNCc3cccc(C(F)(F)F)c3)cc(-c3ccco3)n2)n1 [Compound 75, 2-(furan-2-yl)-N-((2S,3R)-3-hydroxy-1-phenyl-4-(3-(trifluoromethyl)benzylamino)butan-2-yl)-6-((R)-2-(4-methylthiazol-2-yl)pyrrolidine-1-carbonyl)isonicotinamide] | < 100 | < 300
Cc1csc([C@H]2CCCN2C(=O)c2cncc(C(=O)N[C@@H](Cc3ccccc3)[C@H](O)CNCc3cccc(C(F)(F)F)c3)c2)n1 [Compound 31, N-((2S,3R)-3-hydroxy-1-phenyl-4-(3-(trifluoromethyl)benzylamino)butan-2-yl)-5-((R)-2-(4-methylthiazol-2-yl)pyrrolidine-1-carbonyl)nicotinamide] | < 100 | < 300

Next, values leading:

Ki [1] [nM] | IC50 [2] [nM] | Compound
< 100 | < 300 | Cc1coc([C@H]2CCCN2C(=O)c2cc(C(=O)N[C@@H](Cc3ccccc3)[C@H](O)CNCc3cncc(C(C)(C)F)c3)cc(-c3ncco3)c2)n1 [Compound 90, N-((2S,3R)-4-((5-(2-fluoropropan-2-yl)pyridin-3-yl)methylamino)-3-hydroxy-1-phenylbutan-2-yl)-3-((R)-2-(4-methyloxazol-2-yl)pyrrolidine-1-carbonyl)-5-(oxazol-2-yl)benzamide]
< 100 | < 300 | COC[C@H]1CCCN1C(=O)c1cc(C)cc(C(=O)N[C@@H](Cc2ccccc2)[C@H](O)CNCc2cccc(OC)c2)c1 [Compound 3, N-((2S,3R)-3-hydroxy-4-(3-methoxybenzylamino)-1-phenylbutan-2-yl)-3-((R)-2-(methoxymethyl)pyrrolidine-1-carbonyl)-5-methylbenzamide]
< 100 | < 300 | COc1cc(C(=O)N[C@@H](Cc2ccccc2)[C@H](O)CNCc2cccc(Cl)c2)cc(C(=O)N2CCC[C@@H]2c2nc(C)cs2)c1 [Compound 18, N-((2S,3R)-4-(3-chlorobenzylamino)-3-hydroxy-1-phenylbutan-2-yl)-3-methoxy-5-((R)-2-(4-methylthiazol-2-yl)pyrrolidine-1-carbonyl)benzamide]
< 100 | < 300 | COc1cc(C(=O)N[C@@H](Cc2ccccc2)[C@H](O)CNCc2cncc(C(C)C)c2)cc(C(=O)N2CCC[C@@H]2c2nc(C)cs2)c1 [Compound 83, N-((2S,3R)-3-hydroxy-4-((5-isopropylpyridin-3-yl)methylamino)-1-phenylbutan-2-yl)-3-methoxy-5-((R)-2-(4-methylthiazol-2-yl)pyrrolidine-1-carbonyl)benzamide]
< 100 | < 300 | Cc1coc([C@H]2CCCN2C(=O)c2cccc(C(=O)N[C@@H](Cc3ccccc3)[C@H](O)CNCc3cncc(C(F)(F)F)c3)c2)n1 [Compound 103, N-((2S,3R)-3-hydroxy-1-phenyl-4-((5-(trifluoromethyl)pyridin-3-yl)methylamino)butan-2-yl)-3-((R)-2-(4-methyloxazol-2-yl)pyrrolidine-1-carbonyl)benzamide]
< 100 | < 300 | Cc1csc([C@H]2CCCN2C(=O)c2cc(C(=O)N[C@@H](Cc3ccccc3)[C@H](O)CNCc3cccc(C(C)(C)C)c3)cc(N(C)C)c2)n1 [Compound 41, N-((2S,3R)-4-(3-tert-butylbenzylamino)-3-hydroxy-1-phenylbutan-2-yl)-3-(dimethylamino)-5-((R)-2-(4-methylthiazol-2-yl)pyrrolidine-1-carbonyl)benzamide]
< 100 | < 300 | Cc1cc(C(=O)N[C@@H](Cc2ccccc2)[C@H](O)CNCc2cncc(C(C)C)c2)cc(C(=O)N2CCC[C@@H]2c2nc(C)cs2)c1 [Compound 52, N-((2S,3R)-3-hydroxy-4-((5-isopropylpyridin-3-yl)methylamino)-1-phenylbutan-2-yl)-3-methyl-5-((R)-2-(4-methylthiazol-2-yl)pyrrolidine-1-carbonyl)benzamide]
< 100 | < 300 | Cc1coc([C@H]2CCCN2C(=O)c2cc(C(=O)N[C@@H](Cc3ccccc3)[C@H](O)CNCc3cccc(C(F)(F)F)c3)cc(-c3ncco3)c2)n1 [Compound 87, N-((2S,3R)-3-hydroxy-1-phenyl-4-(3-(trifluoromethyl)benzylamino)butan-2-yl)-3-((R)-2-(4-methyloxazol-2-yl)pyrrolidine-1-carbonyl)-5-(oxazol-2-yl)benzamide]
< 100 | < 300 | Cc1coc([C@H]2CCCN2C(=O)c2cc(CF)cc(C(=O)N[C@@H](Cc3ccccc3)[C@H](O)CNCc3cccc(C(F)(F)F)c3)c2)n1 [Compound 82, 3-(fluoromethyl)-N-((2S,3R)-3-hydroxy-1-phenyl-4-(3-(trifluoromethyl)benzylamino)butan-2-yl)-5-((R)-2-(4-methyloxazol-2-yl)pyrrolidine-1-carbonyl)benzamide]
< 100 | < 300 | Cc1coc([C@H]2CCCN2C(=O)c2cccc(C(=O)N[C@@H](Cc3ccccc3)[C@H](O)CNCc3cncc(C(C)(F)F)c3)c2)n1 [Compound 102, N-((2S,3R)-4-((5-(1,1-difluoroethyl)pyridin-3-yl)methylamino)-3-hydroxy-1-phenylbutan-2-yl)-3-((R)-2-(4-methyloxazol-2-yl)pyrrolidine-1-carbonyl)benzamide]
